# Positions of bridges follow the written chain, without caps; N, C: chain ends. Non-standard residues stand in square brackets, D forms with d. Residues, ends and D or L forms follow the SMILES beside them. ξ: configuration not given here. *: point of attachment. Phe(3,4,5-F3) = N[C@@H](Cc1cc(F)c(F)c(F)c1)C(=O)O; Phe(4-COOH) = N[C@@H](Cc1ccc(C(=O)O)cc1)C(=O)O; Bip = N[C@@H](Cc1ccc(-c2ccccc2)cc1)C(=O)O; Phe(3-Me) = Cc1cccc(C[C@H](N)C(=O)O)c1; hTyr = N[C@@H](CCc1ccc(O)cc1)C(=O)O; Val(3-OH) = CC(C)(O)[C@H](N)C(=O)O; NMeR = CN[C@@H](CCCNC(=N)N)C(=O)O; NMeF = CN[C@@H](Cc1ccccc1)C(=O)O; 3Pal = N[C@@H](Cc1cccnc1)C(=O)O; 4Pal = N[C@@H](Cc1ccncc1)C(=O)O; Cha = N[C@@H](CC1CCCCC1)C(=O)O; NMeN = CN[C@@H](CC(N)=O)C(=O)O; dDab = NCC[C@@H](N)C(=O)O; Carboxymethyl = O=C(O)C*; NMeA = CN[C@@H](C)C(=O)O; Orn = NCCC[C@H](N)C(=O)O; Dab = NCC[C@H](N)C(=O)O; Abu = CC[C@H](N)C(=O)O; Dap = NC[C@H](N)C(=O)O; ξV = CC(C)C(N)C(=O)O; Sar = CNCC(=O)O
# Biological target: T1, human PD-1 (Jurkat-PD-1 cells) / PE-labeled human PD-L1-Ig (Homo sapiens, UniProt Q15116)
# T1 construct: expressed in transfected cells; host or cells: Jurkat cell line over-expressing human PD-1
# T1 sequence (Q15116 25-288): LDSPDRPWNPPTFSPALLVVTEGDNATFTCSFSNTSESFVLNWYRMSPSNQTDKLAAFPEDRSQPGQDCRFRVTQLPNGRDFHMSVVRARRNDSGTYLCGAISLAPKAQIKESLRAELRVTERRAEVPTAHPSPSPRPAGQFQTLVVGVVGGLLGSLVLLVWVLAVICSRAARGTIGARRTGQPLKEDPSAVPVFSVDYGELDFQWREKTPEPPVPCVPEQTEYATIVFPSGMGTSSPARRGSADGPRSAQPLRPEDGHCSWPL
# Assay: Jurkat-PD-1 Cell Binding High-Content Screening Assay (CBA); Jurkat hPD1-PDL1 assay
# Settings: Jurkat cell line over-expressing human PD-1; PE-labeled PD-L1-Ig 20 nM final; compound incubated 2 hours at 37° C.; read-out: Jurkat HPD1-PDL1 IC50
# Outline: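 Cell binding by imaging: Jurkat line stably over-expressing human PD-1, compound pre-exposure 2 h at 37° C, PE-conjugated PD-L1-Ig 20 nM final, medium DMEM containing 10% FCS.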
row,SMILES,IC50
1,CC(C)C[C@@H]1NC(=O)[C@H](Cc2c[nH]c3ccccc23)NC(=O)[C@H](CC(=O)O)NC(=O)[C@H](Cc2ccc(O)cc2)NC(=O)[C@H](Cc2ccccc2)NC(=O)CSC[C@@H](C(=O)NCC(N)=O)NC(=O)[C@H](CO)NC(=O)[C@H](C(C)C)NC(=O)[C@H](CC(C)C)NC(=O)[C@H](CC(N)=O)NC(=O)[C@H](C)N(C)C(=O)[C@H](C)N(C)C(=O)[C@H](C(C)C)NC(=O)[C@H](Cc2ccc(-c3ccccc3)cc2)NC1=O [Example 1120] ({CH2CO}-FYDWL[Bip]V[NMeA][NMeA]NLVSCG-NH2; thioether N-14),430 nM
2,CC(C)C[C@@H]1NC(=O)[C@H](Cc2c[nH]c3ccccc23)NC(=O)[C@H](CC(=O)O)NC(=O)[C@H](Cc2ccc(OCC(=O)O)cc2)NC(=O)[C@H](Cc2ccncc2)NC(=O)CSC[C@@H](C(=O)N[C@@H](CCN)C(N)=O)NC(=O)[C@H](CO)NC(=O)[C@H](C(C)(C)O)NC(=O)[C@H](CC2CCCCC2)NC(=O)[C@H](CCN)NC(=O)[C@H]2CCCN2C(=O)[C@H](C)N(C)C(=O)[C@H](C(C)C)NC(=O)[C@H](Cc2ccc(-c3ccccc3)cc2)NC1=O [Example 1185] ({CH2CO}-[4Pal]Y(Carboxymethyl)DWL[Bip]V[NMeA][dP][Dab][Cha][Val(3-OH)]SC[Dab]-NH2; thioether N-14),30 nM
3,CC(C)C[C@@H]1NC(=O)[C@H](Cc2c[nH]c3ccccc23)NC(=O)[C@H](CC(=O)O)NC(=O)[C@H](Cc2ccc(O)cc2)NC(=O)[C@H](Cc2ccccc2)NC(=O)CSC[C@@H](C(=O)N[C@@H](C)C(N)=O)NC(=O)[C@H](CO)NC(=O)[C@H](C(C)C)NC(=O)[C@H](CC(C)C)NC(=O)[C@H](CC(N)=O)NC(=O)CN(C)C(=O)[C@@H](CCN)NC(=O)[C@H](C(C)C)NC(=O)[C@H](Cc2ccc(-c3ccccc3)cc2)NC1=O [Example 1196] ({CH2CO}-FYDWL[Bip]V[dDab][Sar]NLVSCA-NH2; thioether N-14),950 nM
4,CC(C)C[C@@H]1NC(=O)[C@H](Cc2c[nH]c3ccccc23)NC(=O)[C@H](CC(=O)O)NC(=O)[C@H](Cc2ccc(O)cc2)NC(=O)[C@H](Cc2ccccc2)NC(=O)CSC[C@@H](C(=O)N[C@@H](C)C(N)=O)NC(=O)[C@H]([C@@H](C)O)NC(=O)[C@H](C(C)C)NC(=O)[C@H](CC(C)C)NC(=O)[C@H](CC(N)=O)NC(=O)[C@H]2CCCN2C(=O)[C@H](CN)NC(=O)[C@H](C(C)C)NC(=O)[C@H](Cc2ccc(-c3ccccc3)cc2)NC1=O [Example 1405] ({CH2CO}-FYDWL[Bip]V[Dap][dP]NLVTCA-NH2; thioether N-14),660 nM
5,CC(C)C[C@@H]1NC(=O)[C@H](Cc2c[nH]c3ccccc23)NC(=O)[C@H](CC(=O)O)NC(=O)[C@H](Cc2ccc(O)cc2)NC(=O)[C@H](Cc2ccccc2)NC(=O)CSC[C@@H](C(=O)NCC(N)=O)NC(=O)[C@H]([C@@H](C)O)NC(=O)[C@H](C(C)C)NC(=O)[C@H](CC(C)C)NC(=O)[C@H](CCN)NC(=O)[C@H]2CCCN2C(=O)[C@H](CN)NC(=O)[C@H](C(C)C)NC(=O)[C@H](Cc2ccc(-c3ccccc3)cc2)NC1=O [Example 1407] ({CH2CO}-FYDWL[Bip]V[Dap][dP][Dab]LVTCG-NH2; thioether N-14),280 nM
6,CC(C)C[C@@H]1NC(=O)[C@H](Cc2c[nH]c3ccccc23)NC(=O)[C@H](CC(=O)O)NC(=O)[C@H](Cc2ccc(O)cc2)NC(=O)[C@H](Cc2ccccc2)NC(=O)CSC[C@@H](C(=O)NCC(N)=O)NC(=O)[C@H](CO)NC(=O)[C@H](C(C)C)NC(=O)[C@H](CC(C)C)NC(=O)[C@H](CC(N)=O)NC(=O)[C@H](CC(N)=O)N(C)C(=O)[C@H](C)N(C)C(=O)[C@H](C(C)C)NC(=O)[C@H](Cc2ccc(-c3ccccc3)cc2)NC1=O [Example 1148] ({CH2CO}-FYDWL[Bip]V[NMeA][NMeN]NLVSCG-NH2; thioether N-14),670 nM
7,Cc1cccc(C[C@@H]2NC(=O)[C@H](CC(=O)O)NC(=O)[C@H](Cc3ccncc3)NC(=O)[C@H](Cc3ccc(OCC(=O)O)cc3)NC(=O)CSC[C@@H](C(=O)N[C@@H](C)C(N)=O)NC(=O)[C@H]([C@@H](C)O)NC(=O)[C@H](C(C)C)NC(=O)[C@H](CC3CCCCC3)NC(=O)[C@H](CCN)NC(=O)[C@H](Cc3ccccc3)N(C)C(=O)[C@H](CCCN)NC(=O)[C@H](CCC(=O)O)NC(=O)[C@H](Cc3ccc(-c4ccccc4)cc3)NC(=O)C(C(C)C)NC2=O)c1 (stereo partly drawn) [Example 1446] ({CH2CO}-Y(Carboxymethyl)[4Pal]D[Phe(3-Me)][ξV][Bip]E[Orn][NMeF][Dab][Cha]VTCA-NH2; thioether N-14),20 nM
8,CC[C@@H]1NC(=O)[C@H](Cc2ccc(-c3ccccc3)cc2)NC(=O)[C@H](CC(C)C)NC(=O)[C@H](Cc2c[nH]c3ccccc23)NC(=O)[C@H](CC(=O)O)NC(=O)[C@H](Cc2ccc(O)cc2)NC(=O)[C@H](Cc2ccccc2)NC(=O)CSC[C@@H](C(=O)NCC(N)=O)NC(=O)[C@H](CO)NC(=O)[C@H](C(C)C)NC(=O)[C@H](CC(C)C)NC(=O)[C@H](CCCNC(=N)N)NC(=O)CN(C)C(=O)[C@H](CCCNC(=N)N)N(C)C1=O [Example 1234] ({CH2CO}-FYDWL[Bip][Abu][NMeR][Sar]RLVSCG-NH2; thioether N-14),290 nM
9,CC(C)C[C@@H]1NC(=O)[C@H](CCCNC(=N)N)NC(=O)[C@H](Cc2ccccc2)N(C)C(=O)[C@H](C)N(C)C(=O)[C@H](CCCNC(=N)N)NC(=O)[C@H](Cc2ccc(-c3ccccc3)cc2)NC(=O)[C@H](C(C)C)NC(=O)[C@H](Cc2c[nH]c3ccccc23)NC(=O)[C@H](CC(=O)O)NC(=O)[C@H](Cc2cnc[nH]2)NC(=O)[C@H](Cc2ccccc2)NC(=O)CSC[C@@H](C(=O)NCC(N)=O)NC(=O)[C@H](CO)NC(=O)[C@H](C(C)C)NC1=O [Example 1249] ({CH2CO}-FHDWV[Bip]R[NMeA][NMeF]RLVSCG-NH2; thioether N-14),270 nM
10,"CC(C)C[C@@H]1NC(=O)[C@H](Cc2c[nH]c3ccccc23)NC(=O)[C@H](CC(=O)O)NC(=O)[C@H](Cc2ccc(O)cc2)NC(=O)[C@H](Cc2cc(F)c(F)c(F)c2)NC(=O)CSC[C@@H](C(=O)NCC(N)=O)NC(=O)[C@H](CO)NC(=O)[C@H](C(C)C)NC(=O)[C@H](CC(C)C)NC(=O)[C@H](CC(N)=O)NC(=O)CN(C)C(=O)[C@H](C)N(C)C(=O)[C@H](C(C)C)NC(=O)[C@H](Cc2ccc(-c3ccccc3)cc2)NC1=O [Example 1098] ({CH2CO}-[Phe(3,4,5-F3)]YDWL[Bip]V[NMeA][Sar]NLVSCG-NH2; thioether N-14)",310 nM
11,CC(C)C[C@@H]1NC(=O)[C@H](CCCNC(=N)N)NC(=O)[C@H](Cc2ccccc2)N(C)C(=O)[C@H](C)N(C)C(=O)[C@H](CCCNC(=N)N)NC(=O)[C@H](Cc2ccc(-c3ccccc3)cc2)NC(=O)[C@H](C(C)C)NC(=O)[C@H](Cc2c[nH]c3ccccc23)NC(=O)[C@H](CC(=O)O)NC(=O)[C@H](Cc2ccc(O)cc2)NC(=O)[C@H](CC(N)=O)NC(=O)CSC[C@@H](C(=O)N[C@@H](C)C(N)=O)NC(=O)[C@H](CCCN)NC(=O)[C@H](C(C)C)NC1=O [Example 1373] ({CH2CO}-NYDWV[Bip]R[NMeA][NMeF]RLV[Orn]CA-NH2; thioether N-14),180 nM
12,CC(C)C1NC(=O)[C@H](Cc2c[nH]c3ccccc23)NC(=O)[C@H](CC(=O)O)NC(=O)[C@H](Cc2ccc(OCC(=O)O)cc2)NC(=O)[C@H](CN)NC(=O)CSC[C@@H](C(=O)N[C@@H](C)C(N)=O)NC(=O)[C@H]([C@@H](C)O)NC(=O)[C@H](C(C)C)NC(=O)[C@H](CC2CCCCC2)NC(=O)[C@H](CCN)NC(=O)[C@H](Cc2ccccc2)N(C)C(=O)[C@H](CCCN)NC(=O)[C@H](CCC(=O)O)NC(=O)[C@H](Cc2ccc(-c3ccccc3)cc2)NC1=O (stereo partly drawn) [Example 1442] ({CH2CO}-[Dap]Y(Carboxymethyl)DW[ξV][Bip]E[Orn][NMeF][Dab][Cha]VTCA-NH2; thioether N-14),70 nM
13,CC(C)[C@@H]1NC(=O)[C@H](Cc2c[nH]c3ccccc23)NC(=O)[C@H](CC(=O)O)NC(=O)[C@H](Cc2ccc(C(=O)O)cc2)NC(=O)[C@H](Cc2ccncc2)NC(=O)CSC[C@@H](C(=O)N[C@@H](C)C(N)=O)NC(=O)[C@H]([C@@H](C)O)NC(=O)[C@H](C(C)C)NC(=O)[C@H](CC2CCCCC2)NC(=O)[C@H](CCN)NC(=O)[C@H](Cc2ccccc2)N(C)C(=O)[C@H](CCCN)NC(=O)[C@H](CCC(=O)O)NC(=O)[C@H](Cc2ccc(-c3ccccc3)cc2)NC1=O [Example 1438] ({CH2CO}-[4Pal][Phe(4-COOH)]DWV[Bip]E[Orn][NMeF][Dab][Cha]VTCA-NH2; thioether N-14),70 nM
14,CC(C)C[C@@H]1NC(=O)[C@H](CCCNC(=N)N)NC(=O)[C@H](Cc2ccccc2)N(C)C(=O)[C@H](C)N(C)C(=O)[C@H](CCCNC(=N)N)NC(=O)[C@H](Cc2ccc(-c3ccccc3)cc2)NC(=O)[C@H](C(C)C)NC(=O)[C@H](Cc2c[nH]c3ccccc23)NC(=O)[C@H](CC(=O)O)NC(=O)[C@H](Cc2ccc(O)cc2)NC(=O)[C@H](Cc2cccnc2)NC(=O)CSC[C@@H](C(=O)N[C@@H](C)C(N)=O)NC(=O)[C@H]([C@@H](C)O)NC(=O)[C@H](C(C)C)NC1=O [Example 1348] ({CH2CO}-[3Pal]YDWV[Bip]R[NMeA][NMeF]RLVTCA-NH2; thioether N-14),220 nM
15,CC(C)C[C@@H]1NC(=O)[C@H](Cc2c[nH]c3ccccc23)NC(=O)[C@H](CC(=O)O)NC(=O)[C@H](CCc2ccc(O)cc2)NC(=O)[C@H](Cc2ccccc2)NC(=O)CSC[C@@H](C(=O)N[C@@H](C)C(N)=O)NC(=O)[C@H](CO)NC(=O)[C@H](C(C)C)NC(=O)[C@H](CC(C)C)NC(=O)[C@H](CC(N)=O)NC(=O)CN(C)C(=O)[C@H](C)N(C)C(=O)[C@H](C(C)C)NC(=O)[C@H](Cc2ccc(-c3ccccc3)cc2)NC1=O [Example 1086] ({CH2CO}-F[hTyr]DWL[Bip]V[NMeA][Sar]NLVSCA-NH2; thioether N-14),250 nM
